Here are results for 1 cell line from the supplement of paper PMC10307832.

Holding throughout (assay): relative viability (nuclei count vs DMSO), 5 days (fraction); higher = more cells survive
Compound in experiment [1]: C[C@@H](N)c1ccc(C(=O)Nc2ccnc3[nH]ccc23)cc1 + CC(=O)Nc1cccc(-n2c(=O)n(C3CC3)c(=O)c3c(Nc4ccc(I)cc4F)n(C)c(=O)c(C)c32)c1 [Trametinib] (partner 0.02 µM)
In a few lines:
(§1)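 Cells from lung cancer lines were seeded into 1536-well plates and, one day later, dosed by pin tool. Treatments were either a single drug or a fixed dose of an anchor drug with five library-drug doses (not always all listed) in √10 steps. After 5 days, nuclei were stained in a one-step fixation (final 0.05% Triton X-100, 1% formaldehyde, 1 ug/ml Hoechst) and counted on 4× images, and relative viability is the treated-to-vehicle nuclei ratio, as the median of duplicate plates.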

Compound in the experiment “Tanzisertib + Navitoclax”: O[C@H]1CC[C@H](Nc2ncc3nc(Nc4c(F)cc(F)cc4F)n([C@H]4CCOC4)c3n2)CC1 [Tanzisertib] + CC1(C)CCC(c2ccc(Cl)cc2)=C(CN2CCN(c3ccc(C(=O)NS(=O)(=O)c4ccc(N[C@H](CCN5CCOCC5)CSc5ccccc5)c(S(=O)(=O)C(F)(F)F)c4)cc3)CC2)C1 [Navitoclax] (partner 0.5 µM)
The essentials: as §1

Compound in the experiment “Tanzisertib + Olaparib”: O[C@H]1CC[C@H](Nc2ncc3nc(Nc4c(F)cc(F)cc4F)n([C@H]4CCOC4)c3n2)CC1 [Tanzisertib] + O=C(c1cc(Cc2n[nH]c(=O)c3ccccc23)ccc1F)N1CCN(C(=O)C2CC2)CC1 [Olaparib] (partner 8 µM)
The essentials:
as §1

Compound in experiment [2]: C1CNCCC1C2=CC(=NN2)C3=CC=NC=C3 + COc1cccc2cc(-c3nc([C@H]4CC[C@H](C(=O)O)CC4)n4ncnc(N)c34)[nH]c12 [OSI-027] (partner 0.5 µM)
In a few lines:
as §1

As for UMC-11, the relative viability came to 0.867 in experiment [1] (first compound 0.04 µM); 0.767 in experiment [1] (first compound 0.1265 µM); 0.849 in experiment [1] (first compound 0.4 µM); 0.184 in experiment [1] (first compound 1.265 µM); 0.525 in experiment [1] (first compound 4 µM); 0.33 with Tanzisertib + Navitoclax (first compound 0.08 µM). Also, the relative viability with Tanzisertib + Navitoclax (first compound 0.253 µM) worked out at 0.319; in the experiment with Tanzisertib + Navitoclax (first compound 0.8 µM), 0.362; with Tanzisertib + Navitoclax (first compound 2.53 µM), 0.342; in the experiment with Tanzisertib + Navitoclax (first compound 8 µM), 0.392; in the experiment with Tanzisertib + Olaparib (first compound 0.08 µM) it was 0.355; in the experiment with Tanzisertib + Olaparib (first compound 0.253 µM), 0.412. Moreover, the relative viability turned out to be 0.411 with Tanzisertib + Olaparib (first compound 0.8 µM); 0.501 with Tanzisertib + Olaparib (first compound 2.53 µM); 0.388 in the experiment with Tanzisertib + Olaparib (first compound 8 µM); 0.452 in experiment [2] (first compound 0.08 µM); 0.537 in experiment [2] (first compound 0.8 µM); 0.459 in experiment [2] (first compound 2.53 µM). For the same cell line, in experiment [2] (first compound 8 µM), the relative viability came out at 0.553.
